Measurements reported in ChEMBL document CHEMBL1201861, “Genomics of Drug Sensitity in Cancer screening data, Wellcome Trust Sanger Institute”.

How the values were obtained:
Assay in all cases: cells
KYSE-410 = assay type: functional, cell-based, Homo sapiens; conditions: Homo sapiens, KYSE-410;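 also: growth inhibition of KYSE-410 cells, measured through a cell viability readout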
Description: SANGER: Inhibition of human KYSE-410 cell growth in a cell viability assay.

786-0 = assay type: functional, cell-based, Homo sapiens; conditions: Homo sapiens
Description: SANGER: Inhibition of human 786-0 cell growth in a cell viability assay.

LS-1034 = assay type: functional, cell-based, Homo sapiens; conditions: Homo sapiens, LS-1034
Description: SANGER: Inhibition of human LS-1034 cell growth in a cell viability assay.

TCC-SUP = assay type: functional, cell-based, Homo sapiens; conditions: Homo sapiens, TCC-SUP;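 also: growth inhibition of TCC-SUP cells, read out with a cell viability assay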
Description: SANGER: Inhibition of human TCCSUP cell growth in a cell viability assay.

UO-31 = assay type: functional, cell-based; conditions: Homo sapiens;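 also: cell viability assay measuring inhibition of cell growth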
Description: SANGER: Inhibition of human U031 cell growth in a cell viability assay.

IST-MEL1 = assay type: functional, cell-based, Homo sapiens; conditions: Homo sapiens, IST-MEL1;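 also: growth inhibition of the cell line, read out with a cell viability assay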
Description: SANGER: Inhibition of human IST-MEL1 cell growth in a cell viability assay.

MKN-7 = assay type: functional, cell-based, Homo sapiens; conditions: Homo sapiens, MKN-7;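 also: growth inhibition of MKN-7 cells, read out with a cell viability assay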
Description: SANGER: Inhibition of human MKN7 cell growth in a cell viability assay.

MDA-MB-415 = assay type: functional, cell-based; conditions: Homo sapiens
CAL-120 = assay type: functional, cell-based, Homo sapiens; conditions: Homo sapiens, CAL-120;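 also: cell growth inhibition, read out as cell viability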
Description: SANGER: Inhibition of human CAL-120 cell growth in a cell viability assay.

RT-112 = assay type: functional, cell-based, Homo sapiens; conditions: Homo sapiens, RT-112
Description: SANGER: Inhibition of human RT-112 cell growth in a cell viability assay.

U-266 = assay type: functional, cell-based; conditions: Homo sapiens
Description: SANGER: Inhibition of human U-266 cell growth in a cell viability assay.

SK-N-DZ = assay type: functional, cell-based, Homo sapiens; conditions: Homo sapiens, SK-N-DZ;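 also: growth inhibition of the cancer cell line, read out through a viability assay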
Description: SANGER: Inhibition of human SK-N-DZ cell growth in a cell viability assay.

Lu-65 = assay type: functional, cell-based; conditions: Homo sapiens;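 also: growth inhibition of Lu-65 cancer cells, read out by a cell viability assay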
Description: SANGER: Inhibition of human LU-65 cell growth in a cell viability assay.

SW948 = assay type: functional, cell-based, Homo sapiens; conditions: Homo sapiens, SW948;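 also: growth inhibition of SW948 cells, read out with a cell viability assay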
Description: SANGER: Inhibition of human SW948 cell growth in a cell viability assay.

SCC-15 = assay type: functional, cell-based, Homo sapiens; conditions: Homo sapiens, SCC-15;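 also: growth inhibition of SCC-15 cells, read out with a cell viability assay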
Description: SANGER: Inhibition of human SCC-15 cell growth in a cell viability assay.

PA-1 = assay type: functional, cell-based, Homo sapiens; conditions: Homo sapiens, PA-1;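 also: IC50 for suppression of PA-1 cell proliferation, determined with a cell viability read-out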
Description: SANGER: Inhibition of human PA-1 cell growth in a cell viability assay.

LoVo = assay type: functional, cell-based; conditions: Homo sapiens;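 also: growth inhibition of human LoVo cells, read out with a cell viability assay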
Description: SANGER: Inhibition of human LoVo cell growth in a cell viability assay.

NB10 = assay type: functional, cell-based, Homo sapiens; conditions: Homo sapiens, NB10;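 also: growth inhibition of NB10 cells, read out by a cell viability assay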
Description: SANGER: Inhibition of human NB10 cell growth in a cell viability assay.

LB2518-MEL = assay type: functional, cell-based, Homo sapiens; conditions: Homo sapiens, LB2518-MEL;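 also: growth inhibition of human LB2518-MEL cells, measured with a cell viability assay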
Description: SANGER: Inhibition of human LB2518-MEL cell growth in a cell viability assay.

A-427 = assay type: functional, cell-based, Homo sapiens; conditions: Homo sapiens, A-427;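 also: growth inhibition of human A-427 cells, read out by a cell viability assay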
Description: SANGER: Inhibition of human A427 cell growth in a cell viability assay.

DB = assay type: functional, cell-based; conditions: Homo sapiens
Description: SANGER: Inhibition of human DB cell growth in a cell viability assay.

KINGS-1 = assay type: functional, cell-based, Homo sapiens; conditions: Homo sapiens, KINGS-1;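 also: cell viability assay measuring suppression of KINGS-1 cell growth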
Description: SANGER: Inhibition of human KINGS-1 cell growth in a cell viability assay.

NCI-H1838 = assay type: functional, cell-based, Homo sapiens; conditions: Homo sapiens, NCI-H1838;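 also: growth inhibition of NCI-H1838 cells, determined with a cell viability readout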
Description: SANGER: Inhibition of human NCI-H1838 cell growth in a cell viability assay.

RERF-LC-MS = assay type: functional, cell-based, Homo sapiens; conditions: Homo sapiens, RERF-LC-MS;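 also: growth inhibition of human RERF-LC-MS cells, read out by a cell viability assay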
Description: SANGER: Inhibition of human RERF-LC-MS cell growth in a cell viability assay.

SiHa = assay type: functional, cell-based, Homo sapiens; conditions: Homo sapiens, SiHa;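 also: Viability-based readout of growth inhibition in SiHa cells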
Description: SANGER: Inhibition of human SiHa cell growth in a cell viability assay.

NCI-H526 = assay type: functional, cell-based; conditions: Homo sapiens;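 also: growth inhibition of the human NCI-H526 cell line, measured by a cell viability assay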
Description: SANGER: Inhibition of human NCI-H526 cell growth in a cell viability assay.

BCPAP = assay type: functional, cell-based, Homo sapiens; conditions: Homo sapiens, BCPAP;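 also: growth inhibition of BCPAP cells, read out in a cell viability assay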
Description: SANGER: Inhibition of human BCPAP cell growth in a cell viability assay.

C3A = assay type: functional, cell-based, Homo sapiens; conditions: Homo sapiens, C3A;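 also: growth inhibition of C3A human cells, quantified with a cell viability readout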
Description: SANGER: Inhibition of human C3A cell growth in a cell viability assay.

MN-60 = assay type: functional, cell-based; conditions: Homo sapiens;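 also: growth inhibition of the MN-60 cell line, determined with a cell viability assay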
Description: SANGER: Inhibition of human MN-60 cell growth in a cell viability assay.

LU-134-A = assay type: functional, cell-based; conditions: Homo sapiens
Description: SANGER: Inhibition of human LU-134-A cell growth in a cell viability assay.

AN3-CA = assay type: functional, cell-based; conditions: Homo sapiens;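 also: growth inhibition of human AN3-CA cells measured by a cell viability assay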
Description: SANGER: Inhibition of human AN3-CA cell growth in a cell viability assay.

BT-474 = assay type: functional, cell-based, Homo sapiens; conditions: Homo sapiens, BT-474
Description: SANGER: Inhibition of human BT-474 cell growth in a cell viability assay.

MKN-1 = assay type: functional, cell-based, Homo sapiens; conditions: Homo sapiens, MKN-1;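 also: growth inhibition of human MKN1 cells, read out by a cell viability measurement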
Description: SANGER: Inhibition of human MKN1 cell growth in a cell viability assay.

LCLC-97TM1 = assay type: functional, cell-based, Homo sapiens; conditions: Homo sapiens, LCLC-97TM1;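 also: cell viability assay measuring growth inhibition of human LCLC-97TM1 cells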
Description: SANGER: Inhibition of human LCLC-97TM1 cell growth in a cell viability assay.

L-428 = assay type: functional, cell-based; conditions: Homo sapiens
Description: SANGER: Inhibition of human L-428 cell growth in a cell viability assay.

CaR-1 = assay type: functional, cell-based, Homo sapiens; conditions: Homo sapiens, CaR-1;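 also: growth inhibition of human CaR-1 cancer cells, read out with a cell viability assay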
Description: SANGER: Inhibition of human CaR-1 cell growth in a cell viability assay.

NCI-H446 = assay type: functional, cell-based; conditions: Homo sapiens;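 also: growth inhibition of NCI-H446 cells determined by a cell viability assay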
Description: SANGER: Inhibition of human NCI-H446 cell growth in a cell viability assay.

U-118-MG = assay type: functional, cell-based, Homo sapiens; conditions: Homo sapiens, U-118-MG
Description: SANGER: Inhibition of human U-118-MG cell growth in a cell viability assay.

PFSK-1 = assay type: functional, cell-based, Homo sapiens; conditions: Homo sapiens, PFSK-1;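 also: cell viability assay measuring how strongly compounds suppress growth of human PFSK-1 cells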
Description: SANGER: Inhibition of human PFSK-1 cell growth in a cell viability assay.

KYSE-70 cell line = assay type: functional, cell-based, Homo sapiens; conditions: Homo sapiens, KYSE-70;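 also: cell viability assay read-out, with IC50 expressing suppression of KYSE-70 cell growth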
Description: SANGER: Inhibition of human KYSE-70 cell growth in a cell viability assay.

BB49-HNC = assay type: functional, cell-based, Homo sapiens; conditions: Homo sapiens, BB49-HNC;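 also: cell viability assay read-out, reported as inhibition of BB49-HNC cell growth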
Description: SANGER: Inhibition of human BB49-HNC cell growth in a cell viability assay.

A498 = assay type: functional, cell-based, Homo sapiens; conditions: Homo sapiens, A498;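 also: growth inhibition of human A498 cells, read out with a cell viability assay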
Description: SANGER: Inhibition of human A498 cell growth in a cell viability assay.

CHP-212 = assay type: functional, cell-based, Homo sapiens; conditions: Homo sapiens, CHP-212
Description: SANGER: Inhibition of human CHP-212 cell growth in a cell viability assay.

SW1088 = assay type: functional, cell-based, Homo sapiens; conditions: Homo sapiens, SW1088;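 also: growth inhibition of human SW1088 cells, read out by a cell viability assay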
Description: SANGER: Inhibition of human SW1088 cell growth in a cell viability assay.

BPH-1 = assay type: functional, cell-based, Homo sapiens; conditions: Homo sapiens, BPH-1;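 also: cell viability assay measuring growth inhibition of human BPH-1 cells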
Description: SANGER: Inhibition of human BPH-1 cell growth in a cell viability assay.

MDA-MB-175-VII = assay type: functional, cell-based, Homo sapiens; conditions: Homo sapiens, MDA-MB-175-VII
MFH-ino = assay type: functional, cell-based; conditions: Homo sapiens;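 also: growth inhibition of human MFH-ino cells, read out by a cell viability assay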
Description: SANGER: Inhibition of human MFH-ino cell growth in a cell viability assay.

BB65-RCC = assay type: functional, cell-based, Homo sapiens; conditions: Homo sapiens, BB65-RCC;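 also: growth inhibition of the cell line, measured with a cell viability assay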
Description: SANGER: Inhibition of human BB65-RCC cell growth in a cell viability assay.

J82 = assay type: functional, cell-based; conditions: Homo sapiens;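 also: growth inhibition of J82 cells, read out with a cell viability assay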
Description: SANGER: Inhibition of human J82 cell growth in a cell viability assay.

C32 = assay type: functional, cell-based, Homo sapiens; conditions: Homo sapiens, C32;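 also: cell viability assay, with IC50 reflecting inhibition of C32 cell growth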
Description: SANGER: Inhibition of human C32 cell growth in a cell viability assay.

M14 = assay type: functional, cell-based, Homo sapiens; conditions: Homo sapiens, M14;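 also: growth inhibition of M14 cells, read out with a cell viability assay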
Description: SANGER: Inhibition of human M14 cell growth in a cell viability assay.

GCIY = assay type: functional, cell-based, Homo sapiens; conditions: Homo sapiens, GCIY;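 also: growth inhibition of the human GCIY cell line, read out by a cell viability assay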
Description: SANGER: Inhibition of human GCIY cell growth in a cell viability assay.

C=CCc1cccc(/C=N/NC(=O)CN2CCN(Cc3ccccc3)CC2)c1O [PAC-1]
IC50 (KYSE-410): 1180 nM
IC50 (786-0): 739 nM
IC50 (LS-1034): > 2560 nM
IC50 (TCC-SUP): > 2560 nM
IC50 (UO-31): 1510 nM
IC50 (IST-MEL1): > 2560 nM
IC50 (MKN-7): > 2560 nM
IC50 (MDA-MB-415): > 2560 nM
IC50 (CAL-120): > 2560 nM
IC50 (RT-112): > 2560 nM
IC50 (U-266): > 2560 nM
IC50 (SK-N-DZ): > 2560 nM
IC50 (Lu-65): > 2560 nM
IC50 (SW948): > 2560 nM
IC50 (SCC-15): > 2560 nM
IC50 (PA-1): > 2560 nM
IC50 (LoVo): > 2560 nM
IC50 (NB10): > 2560 nM
IC50 (LB2518-MEL): > 2560 nM
IC50 (A-427): > 2560 nM
IC50 (DB): > 2560 nM
IC50 (KINGS-1): > 2560 nM
IC50 (NCI-H1838): > 2560 nM
IC50 (RERF-LC-MS): > 2560 nM
IC50 (SiHa): > 2560 nM
IC50 (NCI-H526): > 2560 nM
IC50 (BCPAP): > 2560 nM
IC50 (C3A): > 2560 nM
IC50 (MN-60): > 2560 nM
IC50 (LU-134-A): > 2560 nM
IC50 (AN3-CA): > 2560 nM
IC50 (BT-474): > 2560 nM
IC50 (MKN-1): > 2560 nM
IC50 (LCLC-97TM1): 1420 nM
IC50 (L-428): 1330 nM
IC50 (CaR-1): > 2560 nM
IC50 (NCI-H446): > 2560 nM
IC50 (U-118-MG): > 2560 nM
IC50 (PFSK-1): > 2560 nM
IC50 (KYSE-70 cell line): > 2560 nM
IC50 (BB49-HNC): > 2560 nM
IC50 (A498): > 2560 nM
IC50 (CHP-212): > 2560 nM
IC50 (SW1088): > 2560 nM
IC50 (BPH-1): > 2560 nM
IC50 (MDA-MB-175-VII): > 2560 nM
IC50 (MFH-ino): > 2560 nM
IC50 (BB65-RCC): > 2560 nM
IC50 (J82): > 2560 nM
IC50 (C32): > 2560 nM
IC50 (M14): > 2560 nM
IC50 (GCIY): > 2560 nM

O=C1N=C(NCc2cccs2)S/C1=C\c1ccc2ncccc2c1
IC50 (KYSE-410): > 5000 nM
IC50 (786-0): > 5000 nM
IC50 (LS-1034): > 5000 nM
IC50 (TCC-SUP): > 5000 nM
IC50 (UO-31): > 5000 nM
IC50 (IST-MEL1): > 5000 nM
IC50 (MKN-7): > 5000 nM
IC50 (MDA-MB-415): > 5000 nM
IC50 (CAL-120): > 5000 nM
IC50 (RT-112): > 5000 nM
IC50 (U-266): > 5000 nM
IC50 (SK-N-DZ): 2020 nM
IC50 (Lu-65): > 5000 nM
IC50 (SW948): > 5000 nM
IC50 (SCC-15): > 5000 nM
IC50 (PA-1): 1230 nM
IC50 (LoVo): > 5000 nM
IC50 (NB10): > 5000 nM
IC50 (LB2518-MEL): > 5000 nM
IC50 (A-427): > 5000 nM
IC50 (DB): > 5000 nM
IC50 (KINGS-1): > 5000 nM
IC50 (NCI-H1838): > 5000 nM
IC50 (RERF-LC-MS): > 5000 nM
IC50 (SiHa): > 5000 nM
IC50 (NCI-H526): > 5000 nM
IC50 (BCPAP): > 5000 nM
IC50 (C3A): > 5000 nM
IC50 (MN-60): 4380 nM
IC50 (LU-134-A): > 5000 nM
IC50 (AN3-CA): > 5000 nM
IC50 (BT-474): > 5000 nM
IC50 (MKN-1): > 5000 nM
IC50 (LCLC-97TM1): > 5000 nM
IC50 (L-428): > 5000 nM
IC50 (CaR-1): > 5000 nM
IC50 (NCI-H446): > 5000 nM
IC50 (U-118-MG): > 5000 nM
IC50 (PFSK-1): > 5000 nM
IC50 (KYSE-70 cell line): > 5000 nM
IC50 (BB49-HNC): > 5000 nM
IC50 (A498): > 5000 nM
IC50 (CHP-212): > 5000 nM
IC50 (SW1088): > 5000 nM
IC50 (BPH-1): 2970 nM
IC50 (MDA-MB-175-VII): > 5000 nM
IC50 (BB65-RCC): > 5000 nM
IC50 (J82): > 5000 nM
IC50 (C32): > 5000 nM
IC50 (M14): > 5000 nM
IC50 (GCIY): > 5000 nM
